Data set [1] has as its target T1, Rev-Erb alpha (Homo sapiens, UniProt P20393).
T1 sequence (P20393 284-614 limits assumed): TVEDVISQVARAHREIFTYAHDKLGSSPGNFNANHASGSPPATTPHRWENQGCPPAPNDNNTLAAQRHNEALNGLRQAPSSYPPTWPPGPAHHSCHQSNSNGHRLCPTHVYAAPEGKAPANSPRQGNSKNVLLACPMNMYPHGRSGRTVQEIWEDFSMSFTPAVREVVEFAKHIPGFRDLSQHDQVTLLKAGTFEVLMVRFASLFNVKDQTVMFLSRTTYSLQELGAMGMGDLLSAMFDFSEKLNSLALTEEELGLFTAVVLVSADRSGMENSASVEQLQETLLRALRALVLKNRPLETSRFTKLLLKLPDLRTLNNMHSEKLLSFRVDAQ
Kind of data set: M2H (mammalian two-hybrid) cellular activation assay of Rev-Erb alpha. As to conditions: M2H assay, HEK293 cells, Gal4-Rev-Erb alpha / VP16-NCoR, luciferase reporter. The data set is classed as cell-based. Put shortly: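 Six-point dose-response, 18 h, 37 °C, serum-free, in HEK293 cells carrying a Gal4-RE luciferase reporter with Gal4-Rev-Erb alpha or beta plus VP16-NCoR (corepressor interaction readout). EC50 and TOP activation (%) derived from luminescence across four experiments.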
(Reporter assays use an easily measured gene product as a stand-in for the process of interest.)

The next data set has as its target T2, Rev-Erb beta (Homo sapiens, UniProt Q14995).
T2 sequence (Q14995 369-579 limits assumed): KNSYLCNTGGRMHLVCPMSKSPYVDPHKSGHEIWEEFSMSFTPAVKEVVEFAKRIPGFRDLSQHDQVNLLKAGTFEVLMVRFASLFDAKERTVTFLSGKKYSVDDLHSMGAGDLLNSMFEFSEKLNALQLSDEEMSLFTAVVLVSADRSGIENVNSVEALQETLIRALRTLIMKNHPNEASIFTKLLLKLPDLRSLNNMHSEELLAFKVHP
As to the kind of experiment: M2H (mammalian two-hybrid) cellular activation assay of Rev-Erb beta. The format is cell-based. To be noted: HEK293 cells, Gal4-Rev-Erb beta / VP16-NCoR, luciferase reporter. The procedure:
In this system, Rev-Erb alpha or Rev-Erb beta is expressed as a fusion to the Gal4 DNA-binding domain and the cofactor NCoR is expressed as a fusion to the activation domain of the Herpes Simplex Virus tegument protein VP16. These fusion proteins were included in plasmids at a concentration of 1 μg/μL. The pBS-SK+ vector was added to the preparation to adjust the DNA quantity to a fixed value for each condition.
The transfection mix (Jet-PEI protocol, Polyplus transfection) comprised: • 3 mL of Jet PEI Mix (180 μL Jet-Pei and NaCl at 150 mM) and • 3 mL of the DNA Mix or of the DNA Mix control (wherein the Gal4-Rev-Erb alpha plasmid was replaced by a pGal4phi plasmid).
DNA Mix comprised 1.2 mL of DNA and 1.8 mL of NaCl at 150 mM with, in a T225 flask: • 90 ng of Gal4-Rev-Erb alpha, or 90 ng of Gal4-Rev-Erb beta, • 4500 ng of VP16-NCoR, • 27000 ng of Gal4-RE and • 13410 ng of pBS-SK+. Cells
HEK293 cells were cultured in DMEM (Invitrogen 41965) comprising 10% FBS, P/S, 1% glutamine, 1% pyruvate (Invitrogen 11360) and 1% amino acids (Invitrogen 11140). Cells were then batch co-transfected with plasmid vectors (described in the table above) using as Jet-PEI as reagent (Polyplus) following the protocol specified below.
The 6 mL-transfection mix was transferred in a T225 flask. HEK293 cells were then added at a concentration of 12 Millions of cells for 54 mL of medium (DMEM comprising 10% FBS and 1% P/S). Cells incubated over-night at 37° C. and under 5% CO2.
This cell-based assay is performed using 384-well Greiner white plates (Reference 781080). After the incubation, cells were rinsed with PBS, trypsinized, centrifuged and resuspended in free-serum DMEM without phenol red (Invitrogen 31053). Cells were counted and adjusted to 0.5 Million per mL and plated at a concentration of 10,000 cells in 20 μL per well. They were incubated a minimum of 4 hours at 37° C. under 5% CO2. Cells were treated with 20 μL of the compound to analyze (concentration of 2× diluted in DMEM without FBS containing a maximum of 1% DMSO) and incubated over-night (18 hours, 37° C. and 5% CO2). Each compound has been tested at 6 different concentrations to depict a dose-effect allowing the measure of biochemical parameters such as EC50 and TOP activation (%).
Cells were incubated 30 minutes with 40 μL/well of Steady Glow (Promega) and luminescence was read with TECAN Genios Pro (100 ms/w). Four experiments were carried out for each compound.
Each compound has been tested at 6 different concentrations to depict a dose-effect allowing the measure of biochemical parameters such as EC50 and TOP activation (%).
The mammalian two-hybrid system (M2H) assay consists herein in studying the ability of compounds according to the invention to activate Rev-Erbalpha in cells and thus modulate the interaction with its corepressor. The interaction of the two proteins is assessed with the help of the Luciferase reporter gene. HEK293 cells were transfected with two gene constructions: Gal4-RE VP16-NCoR and Gal4-Rev-Erbalpha or with Gal4-RE, sVP16-NCoR and Gal4-Rev-Erb beta.
The ability of compounds according to the invention of activating Rev-Erbalpha alpha or Rev-Erb beta was assessed in the described cell-based assay. EC50 and TOP activation (%) were measured.

Data set [2] concerns the target T3, Rev-Erb alpha (Homo sapiens, UniProt P20393).
T3 sequence (P20393 1-614): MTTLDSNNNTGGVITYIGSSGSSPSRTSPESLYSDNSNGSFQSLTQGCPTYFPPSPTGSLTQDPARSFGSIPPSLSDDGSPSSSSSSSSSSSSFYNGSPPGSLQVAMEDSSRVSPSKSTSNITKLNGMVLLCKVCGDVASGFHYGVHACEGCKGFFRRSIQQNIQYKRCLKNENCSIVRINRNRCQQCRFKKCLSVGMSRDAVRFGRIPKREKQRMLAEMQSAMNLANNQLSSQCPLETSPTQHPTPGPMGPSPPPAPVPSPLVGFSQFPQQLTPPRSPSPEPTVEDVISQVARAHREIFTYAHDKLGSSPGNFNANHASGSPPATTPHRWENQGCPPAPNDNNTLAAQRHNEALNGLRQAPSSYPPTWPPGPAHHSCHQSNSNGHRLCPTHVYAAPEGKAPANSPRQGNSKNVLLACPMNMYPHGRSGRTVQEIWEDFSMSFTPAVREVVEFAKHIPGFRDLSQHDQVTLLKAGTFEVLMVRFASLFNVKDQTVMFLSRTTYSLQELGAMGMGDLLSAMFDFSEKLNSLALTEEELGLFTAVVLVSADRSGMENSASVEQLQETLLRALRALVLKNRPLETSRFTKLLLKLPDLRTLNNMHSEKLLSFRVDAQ
As to conditions: FRET assay; Meng Q J et al., 2008; cited from earlier work.

Another data set has as its system Bmal1. As to conditions: cell culture, dose-dependent; cited from earlier work.
Another data set deals with 3T3-L1 cells. To be noted: lipid accumulation and adipogenic genes; cited from earlier work.
For data set [3] the following is noted: high clearance and rapid metabolism; cited from earlier work.
For the next data set, the system named is diet induced obese mice. As to conditions: Solt et al; cited from earlier work.
In data set [4] the test system is Diet Induced Obesity mice. As to the kind of experiment: In vivo evaluation in Diet Induced Obesity mice (high fat diet): glycemia, Hb1Ac. Set-up: species or system C57BI/6J mice. As to conditions: diet induce obese mice, 45 mpk, once daily by gavage, 28 days. The procedure:
Four week-old male C57BI/6J mice (from Janvier, France) were fed with an high fat diet (D12492, SSNIFF) for up to 10 weeks. All mice were housed 2 per cage under controlled conditions of humidity, lighting and temperature. At the end of the 10 week of diets, mice were randomized according to their body weight gain, body weight, and their non-fasting glycaemia. The treatments with compound of interest were administered once daily, by gavage (10 mL/kg) for 28 consecutive days. For oral administrations, the drugs were suspended in CMC 1%+Tween 80 0.1%.
As previously described animals were assayed for their non fasting glycaemia and biochemical parameters such as Hb1Ac.
At the end of the treatment period, animals were anesthetized with isoflurane and then sacrificed by cervical dislocation. The Student's t-test was used to test for statistical differences between drug and vehicle treatments when a single dose of drug was used.

Broadly, the EC50 is the concentration at which the effect is half-maximal. A low value points to a more potent agent. As usually defined, the melting point is the temperature of the solid-liquid transition.

A value given as a limit tells only on which side of the number the result lay.

Consider `CCNc1ccc(Oc2ccc3nnc(Cl)n3n2)c(-c2ccccc2)c1` [Cpd.4-54, 3-chloro-6-(5-ethylamino-biphenyl-2-yloxy)-[1,2,4]triazolo[4,3-b]pyridazine], for which the melting point was 72 to 77 °C. Further, the EC50 on Rev-Erb alpha [1] was in the range of 100 to 1000 nM. In addition, the 50% effective concentration (EC50) at Rev-Erb beta was 100 to 1000 nM.
For `CN(C)c1ccc(Oc2ccc3nnc(Cl)n3n2)c(-c2ccccc2)c1` [Cpd.4-46, 3-chloro-6-(5-dimethylamino-biphenyl-2-yloxy)-[1,2,4]triazolo[4,3-b]pyridazine], the melting point lay in the range of 148 to 149 °C. This molecule returned an EC50 at Rev-Erb alpha [1] below 100 nM. The molecule further came in with an EC50 on Rev-Erb beta of 100 to 1000 nM.
For `CC(C)(C)c1ccc(Oc2ccc3nnc(Cl)n3n2)c(-c2ccccc2)c1` [Cpd.4-19, 6-(5-tert-butyl-biphenyl-2-yloxy)-3-chloro-[1,2,4]triazolo[4,3-b]pyridazine] the same measures were 199.1 °C, 100 to 1000 nM and 100 to 1000 nM.
In turn, `CCCCNc1ccc(Oc2ccc3nnc(Cl)n3n2)c(-c2ccccc2)c1` [Cpd.4-58, 3-chloro-6-(5-butylamino-biphenyl-2-yloxy)-[1,2,4]triazolo[4,3-b]pyridazine] came in with a melting point of 85 to 88 °C. This molecule also showed a half-maximal effective concentration (EC50) at Rev-Erb alpha [1] of 100 to 1000 nM. The EC50 on Rev-Erb beta was 100 to 1000 nM.
In the case of `CN(C)c1ccc(-c2ccccc2)c(Oc2ccc3nnc(Cl)n3n2)c1` [Cpd.4-45, 3-chloro-6-(4-N,N-dimethylamino-biphenyl-2-yloxy)-[1,2,4]triazolo[4,3-b]pyridazine], the values for the EC50 on Rev-Erb alpha [1] and at Rev-Erb beta were below 100 nM and 100 to 1000 nM, respectively.
`CC(C)(C)OC(=O)CN(Cc1ccc(Cl)cc1)Cc1ccc([N+](=O)[O-])s1` [GSK4112]: on Rev-Erb alpha [2], the “interaction of NCoR-derived peptide with Rev-Erb alpha” value is on record as “dose-dependently increasing the interaction”. Further, the Bmal1 expression result in the data set with Bmal1 is given as “decreases Bmal1 expression”. The adipogenesis entry in the data set with 3T3-L1 cells is on record as “induces adipogenesis”. The pharmacokinetic properties result in data set [3] is recorded as “poor pharmacokinetic properties”.
`Cc1cc(Oc2ccc3nnc(Cl)n3n2)c(-c2ccccc2)cc1C` [Cpd.4-18, 6-(4,5-dimethyl-biphenyl-2-yloxy)-3-chloro-[1,2,4]triazolo[4,3-b]pyridazine]: the melting point was 147.5 °C. This molecule returned an EC50 at Rev-Erb alpha [1] below 100 nM. The EC50 at Rev-Erb beta was 100 to 1000 nM.
As to `CCCCCNC(=O)N1CCC(CN(Cc2ccc(Cl)cc2)Cc2ccc([N+](=O)[O-])s2)C1` (stereo not drawn) [SR9011], in the data set on diet induced obese mice, the metabolic parameters entry was “improve the metabolic parameters”.
Take `FC(F)(F)c1ccc(-c2cncnc2)c(Oc2ccc3nnc(Cl)n3n2)c1` [Cpd.4-99, 3-chloro-6-(2-(pyrimidin-5-yl)-5-(trifluoromethyl)phenoxy)-[1,2,4]triazolo[4,3-b]pyridazine]: the EC50 on Rev-Erb alpha [1] lay in the range of 1000 to 6000 nM. In data set [4], the Hb1Ac levels entry is given as “significantly reduced” and the “non fasting blood glucose concentration” value is listed as “significantly reduce”.
On to `CCOC(=O)C1Cc2ccccc2CN1C(=O)c1ccc(SC)s1` (stereo not drawn) [SR8278], for which the pharmacokinetic properties entry in data set [3] is listed as “poor pharmacokinetic properties”.
On to `CCOC(=O)N1CCC(CN(Cc2ccc(Cl)cc2)Cc2ccc([N+](=O)[O-])s2)C1` (stereo not drawn) [SR9009], for which the metabolic parameters result in the data set on diet induced obese mice is given as “improve the metabolic parameters”.

(Values after US9586963B2 (GENFIT, priority 2011, dated 2017).)
